According to PubChem BioAssay (NCI):
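Method: 48-hour compound exposure of cells in 96-well plates, five concentrations, linear interpolation of endpoints. At the GI50, growth is halved. Definition used: TGI = concentration required for complete inhibition of growth.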

What was measured:
Test in all cases: NCI-60 cell line screen, 48 h
786-0 renal = tested on: 786-0 renal
A498 renal = tested on: A498 renal
A549 NSCLC = tested on: A549 NSCLC
ACHN renal = tested on: ACHN renal
BT-549 breast = tested on: BT-549 breast
CAKI-1 renal = tested on: CAKI-1 renal
CCRF-CEM leukemia = tested on: CCRF-CEM leukemia
COLO 205 colon = tested on: COLO 205 colon
DU-145 prostate = tested on: DU-145 prostate
EKVX NSCLC = tested on: EKVX NSCLC
HCC-2998 colon = tested on: HCC-2998 colon
HCT-116 colon = tested on: HCT-116 colon
HCT-15 colon = tested on: HCT-15 colon
HL-60(TB) leukemia = tested on: HL-60(TB) leukemia
HOP-62 NSCLC = tested on: HOP-62 NSCLC
HOP-92 NSCLC = tested on: HOP-92 NSCLC
HS 578T breast = tested on: HS 578T breast
HT29 colon = tested on: HT29 colon
IGROV1 ovarian = tested on: IGROV1 ovarian
K-562 leukemia = tested on: K-562 leukemia
KM12 colon = tested on: KM12 colon
LOX IMVI melanoma = tested on: LOX IMVI melanoma
M14 melanoma = tested on: M14 melanoma
MALME-3M melanoma = tested on: MALME-3M melanoma
MCF7 breast = tested on: MCF7 breast
MDA-MB-231 breast = tested on: MDA-MB-231 breast
MDA-MB-435 = tested on: MDA-MB-435
MDA-MB-468 breast = tested on: MDA-MB-468 breast
MOLT-4 leukemia = tested on: MOLT-4 leukemia
NCI-H226 lung = tested on: NCI-H226 lung
NCI-H23 lung = tested on: NCI-H23 lung
NCI-H460 lung = tested on: NCI-H460 lung
NCI-H522 lung = tested on: NCI-H522 lung
NCI/ADR-RES ovarian = tested on: NCI/ADR-RES ovarian
OVCAR-3 ovarian = tested on: OVCAR-3 ovarian
OVCAR-4 ovarian = tested on: OVCAR-4 ovarian
OVCAR-5 ovarian = tested on: OVCAR-5 ovarian
OVCAR-8 ovarian = tested on: OVCAR-8 ovarian
PC-3 prostate = tested on: PC-3 prostate
RPMI-8226 leukemia = tested on: RPMI-8226 leukemia
RXF 393 renal = tested on: RXF 393 renal
SF-268 CNS = tested on: SF-268 CNS
SF-295 CNS = tested on: SF-295 CNS
SF-539 CNS = tested on: SF-539 CNS
SK-MEL-2 melanoma = tested on: SK-MEL-2 melanoma
SK-MEL-28 melanoma = tested on: SK-MEL-28 melanoma
SK-MEL-5 melanoma = tested on: SK-MEL-5 melanoma
SK-OV-3 ovarian = tested on: SK-OV-3 ovarian
SN12C renal = tested on: SN12C renal
SNB-19 CNS = tested on: SNB-19 CNS
SNB-75 CNS = tested on: SNB-75 CNS
SR leukemia = tested on: SR leukemia
SW-620 colon = tested on: SW-620 colon
T-47D breast = tested on: T-47D breast
TK-10 renal = tested on: TK-10 renal
U251 CNS = tested on: U251 CNS
UACC-257 melanoma = tested on: UACC-257 melanoma
UACC-62 melanoma = tested on: UACC-62 melanoma
UO-31 renal = tested on: UO-31 renal

COc1cccc(-c2nn(-c3ccccc3)cc2-c2ccnc(NCCCNC(=O)Nc3ccc(F)cc3)c2)c1
GI50 (786-0 renal): 9.34 µM | TGI (786-0 renal): > 37 µM | GI50 (A498 renal): 7.37 µM | TGI (A498 renal): 31.4 µM | GI50 (A549 NSCLC): 9.95 µM | TGI (A549 NSCLC): > 37 µM | GI50 (ACHN renal): 10.6 µM | TGI (ACHN renal): > 37 µM | GI50 (BT-549 breast): 6.24 µM | TGI (BT-549 breast): 20.3 µM | GI50 (CAKI-1 renal): 8.63 µM | TGI (CAKI-1 renal): > 37 µM | GI50 (CCRF-CEM leukemia): 8.53 µM | TGI (CCRF-CEM leukemia): 31.5 µM | GI50 (COLO 205 colon): 8.17 µM | TGI (COLO 205 colon): 29.3 µM | GI50 (DU-145 prostate): 14 µM | TGI (DU-145 prostate): > 37 µM | GI50 (EKVX NSCLC): 9.63 µM | TGI (EKVX NSCLC): > 37 µM | GI50 (HCC-2998 colon): 7.38 µM | TGI (HCC-2998 colon): 20 µM | GI50 (HCT-116 colon): 5.7 µM | TGI (HCT-116 colon): 17 µM | GI50 (HCT-15 colon): 7.64 µM | TGI (HCT-15 colon): > 37 µM | GI50 (HL-60(TB) leukemia): 3.77 µM | TGI (HL-60(TB) leukemia): 13.7 µM | GI50 (HOP-62 NSCLC): 14.7 µM | TGI (HOP-62 NSCLC): > 37 µM | GI50 (HOP-92 NSCLC): 6.25 µM | TGI (HOP-92 NSCLC): 31.1 µM | GI50 (HS 578T breast): 6.24 µM | TGI (HS 578T breast): 17.9 µM | GI50 (HT29 colon): 7.17 µM | TGI (HT29 colon): 18.2 µM | GI50 (IGROV1 ovarian): 9.34 µM | TGI (IGROV1 ovarian): > 37 µM | GI50 (K-562 leukemia): 2.96 µM | TGI (K-562 leukemia): > 37 µM | GI50 (KM12 colon): 10.5 µM | TGI (KM12 colon): > 37 µM | GI50 (LOX IMVI melanoma): 5.86 µM | TGI (LOX IMVI melanoma): 12 µM | GI50 (M14 melanoma): 6.71 µM | TGI (M14 melanoma): 19 µM | GI50 (MALME-3M melanoma): 5.45 µM | TGI (MALME-3M melanoma): 10.6 µM | GI50 (MCF7 breast): 7.17 µM | TGI (MCF7 breast): 18 µM | GI50 (MDA-MB-231 breast): 7.84 µM | TGI (MDA-MB-231 breast): 23 µM | GI50 (MDA-MB-435): 5.61 µM | TGI (MDA-MB-435): 12.8 µM | GI50 (MDA-MB-468 breast): 4.83 µM | TGI (MDA-MB-468 breast): 13 µM | GI50 (MOLT-4 leukemia): 3.94 µM | TGI (MOLT-4 leukemia): 19 µM | GI50 (NCI-H226 lung): 10.8 µM | TGI (NCI-H226 lung): > 37 µM | GI50 (NCI-H23 lung): 10.1 µM | TGI (NCI-H23 lung): > 37 µM | GI50 (NCI-H460 lung): 6.54 µM | TGI (NCI-H460 lung): 17.1 µM | GI50 (NCI-H522 lung): 5.07 µM | TGI (NCI-H522 lung): 12 µM | GI50 (NCI/ADR-RES ovarian): 7.29 µM | TGI (NCI/ADR-RES ovarian): 25.4 µM | GI50 (OVCAR-3 ovarian): 6.18 µM | TGI (OVCAR-3 ovarian): > 37 µM | GI50 (OVCAR-4 ovarian): 10.5 µM | TGI (OVCAR-4 ovarian): > 37 µM | GI50 (OVCAR-5 ovarian): 11.2 µM | TGI (OVCAR-5 ovarian): > 37 µM | GI50 (OVCAR-8 ovarian): 10.6 µM | TGI (OVCAR-8 ovarian): > 37 µM | GI50 (PC-3 prostate): 6.23 µM | TGI (PC-3 prostate): > 37 µM | GI50 (RPMI-8226 leukemia): 5.96 µM | TGI (RPMI-8226 leukemia): 24.6 µM | GI50 (RXF 393 renal): 6.01 µM | TGI (RXF 393 renal): 28.6 µM | GI50 (SF-268 CNS): 7.08 µM | TGI (SF-268 CNS): 30 µM | GI50 (SF-295 CNS): 7.16 µM | TGI (SF-295 CNS): 21.7 µM | GI50 (SF-539 CNS): 6.34 µM | TGI (SF-539 CNS): 13.4 µM | GI50 (SK-MEL-2 melanoma): 6.3 µM | TGI (SK-MEL-2 melanoma): 12.6 µM | GI50 (SK-MEL-28 melanoma): 6.57 µM | TGI (SK-MEL-28 melanoma): 15.5 µM | GI50 (SK-MEL-5 melanoma): 5.64 µM | TGI (SK-MEL-5 melanoma): 10.8 µM | GI50 (SK-OV-3 ovarian): 10.8 µM | TGI (SK-OV-3 ovarian): > 37 µM | GI50 (SN12C renal): 9.83 µM | TGI (SN12C renal): > 37 µM | GI50 (SNB-19 CNS): 12.1 µM | TGI (SNB-19 CNS): > 37 µM | GI50 (SNB-75 CNS): 4.18 µM | TGI (SNB-75 CNS): 22.7 µM | GI50 (SR leukemia): 7.7 µM | TGI (SR leukemia): > 37 µM | GI50 (SW-620 colon): 8.02 µM | TGI (SW-620 colon): > 37 µM | GI50 (T-47D breast): 7.95 µM | TGI (T-47D breast): > 37 µM | GI50 (TK-10 renal): 21.2 µM | TGI (TK-10 renal): > 37 µM | GI50 (U251 CNS): 9.84 µM | TGI (U251 CNS): > 37 µM | GI50 (UACC-257 melanoma): 7.05 µM | TGI (UACC-257 melanoma): 16.9 µM | GI50 (UACC-62 melanoma): 7.57 µM | TGI (UACC-62 melanoma): 24.2 µM | GI50 (UO-31 renal): 5.1 µM | TGI (UO-31 renal): > 37 µM
